Laboratory results published in the supplement of paper PMC10307832.

Key:
Assay in all cases: relative viability (nuclei count vs DMSO), 5 days (fraction); higher = more cells survive
[1] = compound: C[C@@H](C(=O)N[C@@H](C1CCCCC1)C(=O)N2CCC[C@H]2C(=O)N[C@@H]3[C@@H](CC4=CC=CC=C34)OCC#CC#CCO[C@@H]5CC6=CC=CC=C6[C@@H]5NC(=O)[C@@H]7CCCN7C(=O)[C@H](C8CCCCC8)NC(=O)[C@H](C)NC)NC [AZD5582] + CS(=O)(=O)N1CCN(Cc2cc3nc(-c4cccc5[nH]ncc45)nc(N4CCOCC4)c3s2)CC1 [Pictilisib] (partner 1 µM)
Outline: (§1)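 One day after seeding in 1536-well plates, lung cancer cell lines were dosed by pin tool. Dosing was either single-drug or a fixed anchor-drug dose plus five library-drug doses (not always all listed) in √10 steps. After 5 days, nuclei were stained in one fix-and-stain step and counted on 4× images, and relative viability is the nuclei count of treated wells over that of vehicle wells, given as the median of duplicate plates.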

[2] = compound: C[C@@H](C(=O)N[C@@H](C1CCCCC1)C(=O)N2CCC[C@H]2C(=O)N[C@@H]3[C@@H](CC4=CC=CC=C34)OCC#CC#CCO[C@@H]5CC6=CC=CC=C6[C@@H]5NC(=O)[C@@H]7CCCN7C(=O)[C@H](C8CCCCC8)NC(=O)[C@H](C)NC)NC [AZD5582] + COc1cccc2cc(-c3nc([C@H]4CC[C@H](C(=O)O)CC4)n4ncnc(N)c34)[nH]c12 [OSI-027] (partner 0.5 µM)
Outline: as §1

[3] = compound: C[C@@H](C(=O)N[C@@H](C1CCCCC1)C(=O)N2CCC[C@H]2C(=O)N[C@@H]3[C@@H](CC4=CC=CC=C34)OCC#CC#CCO[C@@H]5CC6=CC=CC=C6[C@@H]5NC(=O)[C@@H]7CCCN7C(=O)[C@H](C8CCCCC8)NC(=O)[C@H](C)NC)NC [AZD5582] + C[C@]1(O)C[C@@H](c2nc(-c3ccc4ccc(-c5ccccc5)nc4c3)c3c(N)nccn32)C1 [Linsitinib] (partner 1 µM)
Outline: as §1

[4] = compound: C[C@@H](C(=O)N[C@@H](C1CCCCC1)C(=O)N2CCC[C@H]2C(=O)N[C@@H]3[C@@H](CC4=CC=CC=C34)OCC#CC#CCO[C@@H]5CC6=CC=CC=C6[C@@H]5NC(=O)[C@@H]7CCCN7C(=O)[C@H](C8CCCCC8)NC(=O)[C@H](C)NC)NC [AZD5582] + Cc1cc(Nc2cc(N3CCN(C)CC3)nc(Sc3ccc(NC(=O)C4CC4)cc3)n2)n[nH]1 [Tozasertib] (partner 0.1 µM)
Outline: as §1

[5] = compound: C[C@@H](C(=O)N[C@@H](C1CCCCC1)C(=O)N2CCC[C@H]2C(=O)N[C@@H]3[C@@H](CC4=CC=CC=C34)OCC#CC#CCO[C@@H]5CC6=CC=CC=C6[C@@H]5NC(=O)[C@@H]7CCCN7C(=O)[C@H](C8CCCCC8)NC(=O)[C@H](C)NC)NC [AZD5582] + C[C@@H](Oc1cc(-c2cnn(C3CCNCC3)c2)cnc1N)c1c(Cl)ccc(F)c1Cl [Crizotinib] (partner 1 µM)
Outline: as §1

Row | Cell Line | relative viability ([1]; first compound 0.001581 µM) | relative viability ([1]; first compound 0.005 µM) | relative viability ([1]; first compound 0.01581 µM) | relative viability ([1]; first compound 0.05 µM) | relative viability ([2]; first compound 0.001581 µM) | relative viability ([2]; first compound 0.005 µM) | relative viability ([2]; first compound 0.01581 µM) | relative viability ([2]; first compound 0.05 µM) | relative viability ([3]; first compound 0.001581 µM) | relative viability ([3]; first compound 0.005 µM) | relative viability ([3]; first compound 0.01581 µM) | relative viability ([3]; first compound 0.05 µM) | relative viability ([4]; first compound 0.001581 µM) | relative viability ([4]; first compound 0.005 µM) | relative viability ([4]; first compound 0.01581 µM) | relative viability ([4]; first compound 0.05 µM) | relative viability ([5]; first compound 0.001581 µM) | relative viability ([5]; first compound 0.005 µM) | relative viability ([5]; first compound 0.01581 µM) | relative viability ([5]; first compound 0.05 µM)
1 | HOP-62 | 0.445 | 0.655 | 0.256 | 0.62 | 0.727 | 0.837 | 0.83 | 0.83 | 0.654 | 1 | 0.966 | 1.09 | 0.318 | 0.339 | 0.35 | 0.32 | 0.781 | 1.05 | 1 | 0.875
2 | LC-2-ad | 0.327 | 0.673 | 0.644 | 0.662 | 0.823 | 1.05 | 0.725 | 0.957 | 0.916 | 0.938 | 0.911 | 0.97 | 0.363 | 0.493 | 0.418 | 0.4 | 0.457 | 0.454 | 0.384 | 0.391
3 | LCLC-97TM1 | – | 0.244 | 0.15 | 0.154 | 0.4 | 0.567 | 0.496 | 0.382 | – | 0.16 | 0.191 | 0.148 | 0.206 | 0.235 | 0.206 | 0.187 | – | 0.269 | 0.338 | 0.257
4 | LCLC-103H | 0.649 | 0.699 | 0.454 | 0.559 | 0.465 | 0.486 | 0.375 | 0.37 | 1.06 | 1.33 | 1 | 1.19 | 0.377 | 0.409 | 0.455 | 0.315 | 1.1 | 1.08 | 1.02 | 0.777
5 | LK-2 | 0.474 | 0.575 | 0.581 | 0.603 | 0.237 | 0.257 | 0.197 | 0.179 | – | 0.685 | 0.643 | 0.795 | 0.161 | 0.174 | 0.149 | 0.182 | 0.225 | 0.218 | 0.218 | 0.24
6 | LOU-NH91 | 0.557 | 0.521 | 0.534 | 0.539 | 0.752 | 0.739 | 0.705 | 0.711 | 0.964 | 0.924 | 0.997 | 1.04 | 0.594 | 0.679 | 0.679 | 0.613 | 0.713 | 0.746 | 0.729 | 0.741
7 | LU99A | 0.315 | 0.323 | 0.291 | 0.37 | 0.259 | 0.295 | 0.243 | 0.287 | 0.575 | 0.622 | 0.525 | 0.752 | 0.252 | 0.349 | 0.289 | 0.279 | 0.548 | 0.685 | 0.501 | 0.672
8 | LXF-289 | 0.705 | 0.795 | 0.757 | 0.794 | 0.71 | 0.907 | 0.495 | 0.792 | 0.924 | 0.936 | 0.959 | 0.998 | 0.195 | 0.192 | 0.18 | 0.191 | 0.75 | 0.788 | 0.788 | 0.725
9 | NCI-H23 | 0.419 | 0.387 | 0.408 | 0.327 | 0.403 | 0.45 | 0.245 | 0.21 | 0.621 | 0.421 | 0.529 | 0.418 | 0.304 | 0.278 | 0.328 | 0.347 | 0.328 | 0.316 | 0.498 | 0.299
10 | NCI-H322M | 0.554 | 0.632 | 0.715 | 0.625 | 0.508 | 0.713 | – | 0.562 | 0.871 | 1.13 | 0.887 | 1.02 | 0.499 | 0.579 | – | 0.523 | 0.852 | 0.944 | 0.636 | 1.31
11 | NCI-H358 | 0.426 | 0.308 | 0.394 | 0.308 | 0.677 | 0.962 | 0.821 | 0.777 | 0.817 | 0.998 | 0.899 | 0.847 | 0.126 | 0.109 | 0.102 | 0.101 | 0.505 | 0.676 | 0.704 | 0.455
12 | NCI-H441 | 0.419 | 0.536 | 0.405 | 0.47 | 0.536 | 0.582 | – | 0.651 | 0.453 | 0.53 | 0.454 | 0.389 | 0.581 | 0.653 | – | 0.587 | 0.621 | 0.567 | 0.62 | 0.491
13 | NCI-H460 | 0.277 | 0.329 | 0.366 | 0.337 | 0.614 | 0.774 | 0.642 | 0.779 | 0.722 | 0.895 | 0.88 | 1.04 | 0.0814 | 0.495 | 0.509 | 0.521 | 0.801 | 0.998 | 0.704 | 0.94
14 | NCI-H520 | 0.266 | 0.283 | 0.303 | 0.311 | 0.261 | 0.21 | 0.224 | 0.269 | 0.808 | 0.948 | 0.967 | 0.923 | 0.441 | 0.394 | 0.544 | 0.51 | 0.743 | 0.709 | 0.729 | 0.773
